Source: patent US20240158446A1, “CYCLIC COMPOUND HAVING SELECTIVE INHIBITORY ACTION ON KRAS OVER HRAS AND NRAS” (CHUGAI SEIYAKU KABUSHIKI KAISHA, priority 2021, published 2024)
pKd: −log10 of the molar value.

Tests used:
[1] = molecular target: GDP-bound KRAS wild-type protein (Homo sapiens, UniProt P01116); experiment: Binding to KRAS by surface plasmon resonance (SPR), Single Cycle Kinetics; details: SPR, Single Cycle Kinetics, GDP-bound KRAS wild-type protein; read-out: KRAS KD
[2] = molecular target: GDP-bound HRAS wild-type protein (Homo sapiens, UniProt P01112); experiment: Binding to HRAS by surface plasmon resonance (SPR), Single Cycle Kinetics; details: SPR, GDP-bound HRAS wild-type protein vs GDP-bound KRAS wild-type protein
[3] = molecular target: GDP-bound NRAS wild-type protein (Homo sapiens, UniProt P01111); experiment: Binding to NRAS by surface plasmon resonance (SPR), Single Cycle Kinetics; details: SPR, GDP-bound NRAS wild-type protein vs GDP-bound KRAS wild-type protein
Chain of GDP-bound NRAS wild-type protein (P01111 whole entry): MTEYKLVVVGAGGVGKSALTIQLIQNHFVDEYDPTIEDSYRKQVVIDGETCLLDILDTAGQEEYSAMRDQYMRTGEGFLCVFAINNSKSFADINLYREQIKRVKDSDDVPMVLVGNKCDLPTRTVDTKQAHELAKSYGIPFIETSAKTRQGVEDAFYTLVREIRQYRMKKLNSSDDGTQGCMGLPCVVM

Chain of GDP-bound KRAS wild-type protein (P01116 whole entry): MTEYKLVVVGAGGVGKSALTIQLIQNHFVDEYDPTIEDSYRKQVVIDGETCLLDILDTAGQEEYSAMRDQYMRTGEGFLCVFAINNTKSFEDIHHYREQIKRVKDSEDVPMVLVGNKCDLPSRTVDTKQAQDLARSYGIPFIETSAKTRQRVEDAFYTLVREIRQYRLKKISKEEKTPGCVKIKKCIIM
Chain of GDP-bound HRAS wild-type protein (P01112 whole entry): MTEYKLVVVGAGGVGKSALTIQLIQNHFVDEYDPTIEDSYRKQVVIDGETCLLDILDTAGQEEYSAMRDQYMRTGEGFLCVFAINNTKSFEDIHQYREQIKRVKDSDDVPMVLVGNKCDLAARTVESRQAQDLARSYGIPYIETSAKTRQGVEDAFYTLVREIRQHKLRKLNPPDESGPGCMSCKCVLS

Structure (SMILES)	pKd [1]	HRAS/KRAS (ratio of KD value for HRAS to KD value for KRAS) [2]	NRAS/KRAS (ratio of KD value for NRAS to KD value for KRAS) [3]
CCO[C@@H]1C[C@H]2C(=O)NC3(CCC3)C(=O)N(C)[C@@H](C3CCCC3)C(=O)N(C)[C@H](C(=O)N(C)C)CC(=O)N(C)[C@@H](CC)C(=O)N[C@@H]([C@@H](C)CC)C(=O)N(C)CC(=O)N(C)[C@H]3C[C@H]4C[C@H]4CN(C3=O)[C@@H](Cc3ccc(C(F)(F)F)cc3)C(=O)N(C)CC(=O)N[C@@H](CCc3cc(F)c(C(F)(F)F)c(F)c3)C(=O)N2C1 [PP0830]	10.24	C (A compound having a KD ratio of 0.1 or more and less than 3 is denoted as C)	C (A compound having a KD ratio of 0.1 or more and less than 3 is denoted as C)
CCO[C@@H]1C[C@H]2C(=O)NC3(CCC3)C(=O)N(C)[C@@H](C3CCCC3)C(=O)N(C)[C@H](C(=O)N3CCOCC3)CC(=O)N(C)[C@@H](CC(C)C)C(=O)N[C@@H]([C@@H](C)CC)C(=O)N(C)CC(=O)N(C)[C@H]3CC=CCN(C3=O)[C@@H](Cc3ccc(C(F)(F)F)cc3)C(=O)N(C)CC(=O)N[C@@H](CCc3cc(F)c(C(F)(F)F)c(F)c3)C(=O)N2C1 [PP0832]	9.68	C (A compound having a KD ratio of 0.1 or more and less than 3 is denoted as C)	C (A compound having a KD ratio of 0.1 or more and less than 3 is denoted as C)
CC[C@H](C)[C@@H]1NC(=O)[C@H](COC)N(C)C(=O)C[C@@H](C(=O)N2CCOCC2)N(C)C(=O)[C@H](C2CCCC2)N(C)C(=O)C2(CCC2)NC(=O)[C@@H]2C[C@H](OC)CN2C(=O)[C@H](CCc2cc(F)c(C(F)(F)F)c(F)c2)NC(=O)CN(C)C(=O)[C@H](Cc2ccc(C(F)(F)F)cc2)N2CCCCC[C@@H](C2=O)N(C)C(=O)CN(C)C1=O [PP0836]	9.20	B (a compound having 3 or more and less than 10 is denoted as B)	B (a compound having 3 or more and less than 10 is denoted as B)
CC[C@H](C)[C@@H]1NC(=O)[C@H](COC)N(C)C(=O)C[C@@H](C(=O)N2CCOCC2)N(C)C(=O)[C@H](C2CCCC2)N(C)C(=O)C2(CCC2)NC(=O)[C@@H]2C[C@@H](OC)CN2C(=O)[C@H](CCc2cc(F)c(C(F)(F)F)c(F)c2)NC(=O)CN(C)C(=O)[C@H](Cc2ccc(C(F)(F)F)cc2)N2CCCCC[C@@H](C2=O)N(C)C(=O)CN(C)C1=O [PP0837]	9.72	B (a compound having 3 or more and less than 10 is denoted as B)	B (a compound having 3 or more and less than 10 is denoted as B)
CCCO[C@@H]1C[C@H]2C(=O)NC3(CCC3)C(=O)N(C)[C@@H](C3CCCC3)C(=O)N(C)[C@H](C(=O)N3CCOCC3)CC(=O)N(C)[C@@H](COC)C(=O)N[C@@H]([C@@H](C)CC)C(=O)N(C)CC(=O)N(C)[C@H]3CCCCCN(C3=O)[C@@H](Cc3ccc(C(F)(F)F)cc3)C(=O)N(C)CC(=O)N[C@@H](CCc3cc(F)c(C(F)(F)F)c(F)c3)C(=O)N2C1 [PP0838]	9.28	B (a compound having 3 or more and less than 10 is denoted as B)	B (a compound having 3 or more and less than 10 is denoted as B)
CC[C@H](C)[C@@H]1NC(=O)[C@H](COC)N(C)C(=O)C[C@@H](C(=O)N2CCOCC2)N(C)C(=O)[C@H](C2CCCC2)N(C)C(=O)C2(CCC2)NC(=O)[C@@H]2C[C@@H](OCC(C)C)CN2C(=O)[C@H](CCc2cc(F)c(C(F)(F)F)c(F)c2)NC(=O)CN(C)C(=O)[C@H](Cc2ccc(C(F)(F)F)cc2)N2CCCCC[C@@H](C2=O)N(C)C(=O)CN(C)C1=O [PP0839]	8.96	B (a compound having 3 or more and less than 10 is denoted as B)	B (a compound having 3 or more and less than 10 is denoted as B)
CCO[C@@H]1C[C@H]2C(=O)NC3(CCCC3)C(=O)N(C)[C@@H](C3CCCC3)C(=O)N(C)[C@H](C(=O)N3CCOCC3)CC(=O)N(C)[C@@H](COC)C(=O)N[C@@H]([C@@H](C)CC)C(=O)N(C)CC(=O)N(C)[C@H]3CCCCCN(C3=O)[C@@H](Cc3ccc(C(F)(F)F)cc3)C(=O)N(C)CC(=O)N[C@@H](CCc3cc(F)c(C(F)(F)F)c(F)c3)C(=O)N2C1 [PP0841]	9.14	B (a compound having 3 or more and less than 10 is denoted as B)	B (a compound having 3 or more and less than 10 is denoted as B)
CC[C@H](C)[C@@H]1NC(=O)[C@H](COC)N(C)C(=O)C[C@@H](C(=O)N2CCOCC2)N(C)C(=O)[C@H](C2CCCC2)N(C)C(=O)C2(CCCC2)NC(=O)[C@@H]2CCCN2C(=O)[C@H](CCc2cc(F)c(C(F)(F)F)c(F)c2)NC(=O)CN(C)C(=O)[C@H](Cc2ccc(C(F)(F)F)cc2)N2CCCCC[C@@H](C2=O)N(C)C(=O)CN(C)C1=O [PP0845]	8.66	B (a compound having 3 or more and less than 10 is denoted as B)	B (a compound having 3 or more and less than 10 is denoted as B)
CC[C@H](C)[C@@H]1NC(=O)[C@H](COC)N(C)C(=O)C[C@@H](C(=O)N2CCOCC2)N(C)C(=O)[C@H](C2CCCC2)N(C)C(=O)C2(CCCC2)NC(=O)[C@@H]2CC(F)(F)CN2C(=O)[C@H](CCc2cc(F)c(C(F)(F)F)c(F)c2)NC(=O)CN(C)C(=O)[C@H](Cc2ccc(C(F)(F)F)cc2)N2CCCCC[C@@H](C2=O)N(C)C(=O)CN(C)C1=O [PP0846]	9.00	B (a compound having 3 or more and less than 10 is denoted as B)	B (a compound having 3 or more and less than 10 is denoted as B)
CC[C@H](C)[C@@H]1NC(=O)[C@H](COC)N(C)C(=O)C[C@@H](C(=O)N2CCOCC2)N(C)C(=O)[C@H](C2CCCC2)N(C)C(=O)C2(CCCC2)NC(=O)[C@@H]2C[C@H](O)CN2C(=O)[C@H](CCc2cc(F)c(C(F)(F)F)c(F)c2)NC(=O)CN(C)C(=O)[C@H](Cc2ccc(C(F)(F)F)cc2)N2CCCCC[C@@H](C2=O)N(C)C(=O)CN(C)C1=O [PP0847]	9.55	B (a compound having 3 or more and less than 10 is denoted as B)	B (a compound having 3 or more and less than 10 is denoted as B)

The remaining compounds from weak to strong by pKd [1], led by results:

pKd [1]	Structure (SMILES)	HRAS/KRAS (ratio of KD value for HRAS to KD value for KRAS) [2]	NRAS/KRAS (ratio of KD value for NRAS to KD value for KRAS) [3]
8.30	CC[C@H](C)[C@@H]1NC(=O)[C@H](COC)N(C)C(=O)C[C@@H](C(=O)N2CCOCC2)N(C)C(=O)[C@H](C2CCCC2)N(C)C(=O)C2(CCC2)NC(=O)[C@@H]2CCN2C(=O)[C@H](CCc2cc(F)c(C(F)(F)F)c(F)c2)NC(=O)CN(C)C(=O)[C@H](Cc2ccc(C(F)(F)F)cc2)N2CCCCC[C@@H](C2=O)N(C)C(=O)CN(C)C1=O [PP0840]	B (a compound having 3 or more and less than 10 is denoted as B)	B (a compound having 3 or more and less than 10 is denoted as B)
8.92	CCO[C@@H]1C[C@H]2C(=O)NC3(CC(C)(C)C3)C(=O)N(C)[C@@H](C3CCCC3)C(=O)N(C)[C@H](C(=O)N3CCOCC3)CC(=O)N(C)[C@@H](COC)C(=O)N[C@@H]([C@@H](C)CC)C(=O)N(C)CC(=O)N(C)[C@H]3CCCCCN(C3=O)[C@@H](Cc3ccc(C(F)(F)F)cc3)C(=O)N(C)CC(=O)N[C@@H](CCc3cc(F)c(C(F)(F)F)c(F)c3)C(=O)N2C1 [PP0844]	B (a compound having 3 or more and less than 10 is denoted as B)	B (a compound having 3 or more and less than 10 is denoted as B)
9.22	CCO[C@@H]1C[C@H]2C(=O)NC3(CC=CC3)C(=O)N(C)[C@@H](C3CCCC3)C(=O)N(C)[C@H](C(=O)N3CCOCC3)CC(=O)N(C)[C@@H](COC)C(=O)N[C@@H]([C@@H](C)CC)C(=O)N(C)CC(=O)N(C)[C@H]3CCCCCN(C3=O)[C@@H](Cc3ccc(C(F)(F)F)cc3)C(=O)N(C)CC(=O)N[C@@H](CCc3cc(F)c(C(F)(F)F)c(F)c3)C(=O)N2C1 [PP0842]	B (a compound having 3 or more and less than 10 is denoted as B)	B (a compound having 3 or more and less than 10 is denoted as B)
9.28	CCO[C@@H]1C[C@H]2C(=O)NC3(CC(F)(F)C3)C(=O)N(C)[C@@H](C3CCCC3)C(=O)N(C)[C@H](C(=O)N3CCOCC3)CC(=O)N(C)[C@@H](COC)C(=O)N[C@@H]([C@@H](C)CC)C(=O)N(C)CC(=O)N(C)[C@H]3CCCCCN(C3=O)[C@@H](Cc3ccc(C(F)(F)F)cc3)C(=O)N(C)CC(=O)N[C@@H](CCc3cc(F)c(C(F)(F)F)c(F)c3)C(=O)N2C1 [PP0843]	B (a compound having 3 or more and less than 10 is denoted as B)	B (a compound having 3 or more and less than 10 is denoted as B)
9.49	CCO[C@@H]1C[C@H]2C(=O)NC3(CC(F)(F)C3)C(=O)N(C)[C@@H](C3CCCC3)C(=O)N(C)[C@H](C(=O)N3CCOCC3)CC(=O)N(C)[C@@H](CC(C)C)C(=O)N[C@@H]([C@@H](C)CC)C(=O)N(C)CC(=O)N(C)[C@H]3C[C@H]4C[C@H]4CN(C3=O)[C@@H](Cc3ccc(C(F)(F)F)cc3)C(=O)N(C)CC(=O)N[C@@H](CCc3cc(F)c(C(F)(F)F)c(F)c3)C(=O)N2C1 [PP0831]	C (A compound having a KD ratio of 0.1 or more and less than 3 is denoted as C)	C (A compound having a KD ratio of 0.1 or more and less than 3 is denoted as C)
